Measured values as given in ChEMBL document CHEMBL4028802, “DILIrank: the largest reference drug list ranked by the risk for developing drug-induced liver injury in humans” (Drug Discov Today, 2016).
Starred links: 1 amine or outer side, 2 acyl side, 3 side chain; linkers in the order of their positions; H or OH if unused. Positions of bridges follow the written chain, without caps; N, C: chain ends. Non-standard residues stand in square brackets, D forms with d. Residues, ends and D or L forms follow the SMILES beside them. *: point of attachment. pTerphenylCO(4''-OnC5H11) = CCCCCOc1ccc(-c2ccc(-c3ccc(C(=O)*)cc3)cc2)cc1; Orn(4R-OH,5R-OH) = O=C([C@H](C[C@@H](O)[C@@H](O)N[*:3])N[*:1])[*:2]; hTyr(3S-OH,4S-OH) = N[C@H](C(=O)O)[C@H](O)[C@@H](O)c1ccc(O)cc1; Ileψ(thiazoline)Cys = CC[C@H](C)[C@H](N)C1=N[C@H](C(=O)*)CS1; Pro(3S-OH,4S-Me) = C[C@H]1CN[C@H](C(=O)O)[C@H]1O; Hyp = O=C(O)[C@@H]1C[C@@H](O)CN1; dOrn = NCCC[C@@H](N)C(=O)O

Tests used:
Homo sapiens [1] = organism: Homo sapiens; test: Liver toxicity in human assessed as induction of drug-induced liver injury by measuring severity class index
Homo sapiens [2] = organism: Homo sapiens; test: Liver toxicity in human assessed as induction of drug-induced liver injury by measuring verified drug-induced liver injury concern status
Wherever DILI severity class is given: key of the grades not given here.

Row | Structure (SMILES) | DILI_severity_class (Homo sapiens [1]) | DILI_Concern (Homo sapiens [2])
1 | CCc1c2c(nc3ccc(OC(=O)N4CCC(N5CCCCC5)CC4)cc13)-c1cc3c(c(=O)n1C2)COC(=O)[C@]3(O)CC [IRINOTECAN] | 3 | Less-Dili-Concern
2 | CO[C@H]1/C=C/O[C@@]2(C)Oc3c(C)c(O)c4c(O)c(c(/C=N/N5CCN(C)CC5)c(O)c4c3C2=O)NC(=O)/C(C)=C\C=C\[C@H](C)[C@H](O)[C@@H](C)[C@@H](O)[C@@H](C)[C@H](OC(C)=O)[C@@H]1C [RIFAMPIN] | 8 | Most-Dili-Concern
3 | NS(=O)(=O)c1cc2c(cc1Cl)N=CNS2(=O)=O [CHLOROTHIAZIDE] | 2 | Less-Dili-Concern
4 | CO/N=C(\C(=O)N[C@@H]1C(=O)N2C(C(=O)[O-])=C(C[N+]3(C)CCCC3)CS[C@H]12)c1csc(N)n1 | 3 | Less-Dili-Concern
5 | CCCCCOc1ccc(-c2ccc(-c3ccc(C(=O)N[C@H]4C[C@@H](O)[C@@H](O)NC(=O)[C@@H]5[C@@H](O)[C@@H](C)CN5C(=O)[C@H]([C@@H](C)O)NC(=O)[C@H]([C@H](O)[C@@H](O)c5ccc(O)cc5)NC(=O)[C@@H]5C[C@@H](O)CN5C(=O)[C@H]([C@@H](C)O)NC4=O)cc3)cc2)cc1 [ANIDULAFUNGIN] ({pTerphenylCO(4''-OnC5H11)}-[Orn(4R-OH,5R-OH)]T[Hyp][hTyr(3S-OH,4S-OH)]T[Pro(3S-OH,4S-Me)]; lactam 1-C) | 7 | Ambiguous-Dili-Concern
6 | CC(=O)Oc1ccc(C(c2ccc(OC(C)=O)cc2)c2ccccn2)cc1 [BISACODYL] | 0 | No-Dili-Concern
7 | CN(Cc1cnc2nc(N)nc(N)c2n1)c1ccc(C(=O)N[C@@H](CCC(=O)O)C(=O)O)cc1 [METHOTREXATE] | 3 | Most-Dili-Concern
8 | CCc1nn(CCCN2CCN(c3cccc(Cl)c3)CC2)c(=O)n1CCOc1ccccc1 [NEFAZODONE] | 8 | Most-Dili-Concern
9 | CCc1oc2ccccc2c1C(=O)c1cc(I)c(O)c(I)c1 [BENZIODARONE] | 8 | Most-Dili-Concern
10 | CC[C@H](C)[C@H](N)C1=N[C@H](C(=O)N[C@@H](CC(C)C)C(=O)N[C@H](CCC(=O)O)C(=O)N[C@H](C(=O)N[C@H]2CCCCNC(=O)[C@H](CC(N)=O)NC(=O)[C@@H](CC(=O)O)NC(=O)[C@H](Cc3cnc[nH]3)NC(=O)[C@@H](Cc3ccccc3)NC(=O)[C@H]([C@@H](C)CC)NC(=O)[C@@H](CCCN)NC2=O)[C@@H](C)CC)CS1 [BACITRACIN] ({Ileψ(thiazoline)Cys}-L[dE]IK[dOrn]I[dF]H[dD]N; lactam 4-C) | 0 | No-Dili-Concern
11 | CC(C)NCC(O)COc1cccc2[nH]ccc12 (stereo unspecified) [PINDOLOL] | 0 | No-Dili-Concern
12 | COc1ccc2[n-]c([S@+]([O-])Cc3ncc(C)c(OC)c3C)nc2c1.[Na+] | 4 | Less-Dili-Concern
13 | CC[C@]1(O)C[C@H]2CN(CCc3c([nH]c4ccccc34)[C@@](C(=O)OC)(c3cc4c(cc3OC)N(C=O)[C@H]3[C@@](O)(C(=O)OC)[C@H](OC(C)=O)[C@]5(CC)C=CCN6CC[C@]43[C@@H]65)C2)C1 [VINCRISTINE] | 8 | Less-Dili-Concern
14 | CC(=O)OCC(CCn1cnc2cnc(N)nc21)COC(C)=O [FAMCICLOVIR] | 3 | Ambiguous-Dili-Concern
15 | Cn1c(=O)c2[nH]cnc2n(C)c1=O.O [THEOPHYLLINE] | 0 | No-Dili-Concern
16 | COCCCC/C(=N\OCCN)c1ccc(C(F)(F)F)cc1 [FLUVOXAMINE] | 3 | Ambiguous-Dili-Concern
17 | CC1OC2(CS1)CN1CCC2CC1 (stereo unspecified) [CEVIMELINE] | 3 | Ambiguous-Dili-Concern

Row | Structure (SMILES) | DILI_severity_class (Homo sapiens [1]) | DILI_Concern (Homo sapiens [2])
18 | COCCCOc1ccnc(C[S+]([O-])c2nc3ccccc3[nH]2)c1C (stereo unspecified) [RABEPRAZOLE] | 3 | Less-Dili-Concern
19 | CNC(=O)c1c(I)c(NC(C)=O)c(I)c(C(=O)[O-])c1I.[Na+] [IOTHALAMATE SODIUM] | 0 | No-Dili-Concern
20 | Nc1ncn([C@H]2C[C@H](O)[C@@H](CO)O2)c(=O)n1 [DECITABINE] | 4 | Ambiguous-Dili-Concern
21 | Nc1nc(=O)c2c([nH]1)NCC(CNc1ccc(C(=O)N[C@@H](CCC(=O)[O-])C(=O)[O-])cc1)N2C=O.[Ca+2] (stereo partly specified) [LEUCOVORIN CALCIUM] | 0 | No-Dili-Concern
22 | CO/N=C(\C(=O)N[C@@H]1C(=O)N2C(C(=O)O)=C(CSc3nc(=O)c(=O)[nH]n3C)CS[C@H]12)c1csc(N)n1 [CEFTRIAXONE] | 4 | Less-Dili-Concern
23 | CC(N)C(=O)OC(C)(C)Cc1ccc(Cl)cc1 (stereo unspecified) [ALAPROCLATE] | 8 | Most-Dili-Concern
24 | O=C(c1ccccc1)c1ccc2n1CCC2C(=O)O (stereo unspecified) [KETOROLAC] | 3 | Less-Dili-Concern
25 | CC(=O)N(O)CCCCCNC(=O)CCC(=O)N(O)CCCCCNC(=O)CCC(=O)N(O)CCCCCN [DEFEROXAMINE] | 0 | Less-Dili-Concern
26 | CCCCc1oc2ccc(NS(C)(=O)=O)cc2c1C(=O)c1ccc(OCCCN(CCCC)CCCC)cc1 [DRONEDARONE] | 7 | Most-Dili-Concern
27 | C[C@@H](O)[C@@H]1NC(=O)[C@H](CCCCN)NC(=O)[C@@H](Cc2c[nH]c3ccccc23)NC(=O)[C@H](Cc2ccccc2)NC(=O)[C@@H](NC(=O)[C@H](N)Cc2ccccc2)CSSC[C@@H](C(=O)N[C@H](CO)[C@@H](C)O)NC1=O [OCTREOTIDE] | 2 | Less-Dili-Concern
28 | Cl.N [AMMONIUM CHLORIDE] | 0 | No-Dili-Concern
29 | C[C@@H](CN1CC(=O)NC(=O)C1)N1CC(=O)NC(=O)C1 [DEXRAZOXANE] | 4 | Ambiguous-Dili-Concern
30 | CCCCCCCCNC(C)C(O)c1ccc(SC(C)C)cc1 (stereo unspecified) [SULOCTIDIL] | 8 | Most-Dili-Concern
31 | COc1cc([C@@H]2c3cc4c(cc3[C@@H](O[C@@H]3O[C@@H]5CO[C@@H](C)O[C@H]5[C@H](O)[C@H]3O)[C@H]3COC(=O)[C@H]23)OCO4)cc(OC)c1O [ETOPOSIDE] | 3 | Less-Dili-Concern
32 | Cc1ccc(/C(=C\CN2CCCC2)c2ccccn2)cc1 [TRIPROLIDINE] | 0 | No-Dili-Concern
33 | CO[C@H]1O[C@H](COS(=O)(=O)[O-])[C@@H](O[C@@H]2O[C@@H](C(=O)[O-])[C@@H](O[C@H]3O[C@H](COS(=O)(=O)[O-])[C@@H](O[C@@H]4O[C@H](C(=O)[O-])[C@@H](O[C@H]5O[C@H](COS(=O)(=O)[O-])[C@@H](O)[C@H](O)[C@H]5NS(=O)(=O)[O-])[C@H](O)[C@H]4O)[C@H](OS(=O)(=O)[O-])[C@H]3NS(=O)(=O)[O-])[C@H](O)[C@H]2OS(=O)(=O)[O-])[C@H](O)[C@H]1NS(=O)(=O)[O-].[Na+].[Na+].[Na+].[Na+].[Na+].[Na+].[Na+].[Na+].[Na+].[Na+] [FONDAPARINUX SODIUM] | 3 | Less-Dili-Concern
